The values below come from patent publication US5780498A, “Endothelin receptor antagonists” (Ciba-Geigy Japan Limited, priority 1993, dated 1998).

One test has as its target T1, ETA receptor (Sus scrofa, UniProt Q29010).
T1 construct: The plasma membrane of porcine lung; from tissue; host or cells: porcine lung plasma membrane
T1 sequence (Q29010 21-427): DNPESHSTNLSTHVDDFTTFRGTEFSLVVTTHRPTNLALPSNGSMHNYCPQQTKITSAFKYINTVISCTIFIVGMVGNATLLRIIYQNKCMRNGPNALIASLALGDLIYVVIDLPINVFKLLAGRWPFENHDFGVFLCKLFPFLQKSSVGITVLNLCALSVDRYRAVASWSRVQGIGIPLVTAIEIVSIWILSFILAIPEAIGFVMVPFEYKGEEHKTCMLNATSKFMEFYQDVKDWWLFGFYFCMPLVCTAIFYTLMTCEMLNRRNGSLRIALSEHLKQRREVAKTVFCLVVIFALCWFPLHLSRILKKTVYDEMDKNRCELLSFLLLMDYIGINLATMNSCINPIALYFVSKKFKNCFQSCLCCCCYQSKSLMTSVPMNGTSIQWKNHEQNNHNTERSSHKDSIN
The test can be described thus: Endothelin (ET) receptor binding assay, ETA ([125I]ET-1 in the presence of 1 nM nonlabeled ET-3, porcine lung plasma membrane). Particulars: for inhibition at 10 µM: 10^-5 M of the test compound, specific ETA binding; for Ki: from inhibition curves for the binding of [125I]ETs. Here is the method: (§1) Nonspecific binding is defined as membrane-associated radioactivity in the presence of saturating concentrations of ETs (100 nM). Nonspecific binding is subtracted from the total binding and the difference is defined as specific binding.

For another test, the target named is T2, ETB receptor (Sus scrofa, UniProt P35463).
T2 construct: The plasma membrane of porcine lung; from tissue; host or cells: porcine lung plasma membrane
T2 sequence (P35463 27-443): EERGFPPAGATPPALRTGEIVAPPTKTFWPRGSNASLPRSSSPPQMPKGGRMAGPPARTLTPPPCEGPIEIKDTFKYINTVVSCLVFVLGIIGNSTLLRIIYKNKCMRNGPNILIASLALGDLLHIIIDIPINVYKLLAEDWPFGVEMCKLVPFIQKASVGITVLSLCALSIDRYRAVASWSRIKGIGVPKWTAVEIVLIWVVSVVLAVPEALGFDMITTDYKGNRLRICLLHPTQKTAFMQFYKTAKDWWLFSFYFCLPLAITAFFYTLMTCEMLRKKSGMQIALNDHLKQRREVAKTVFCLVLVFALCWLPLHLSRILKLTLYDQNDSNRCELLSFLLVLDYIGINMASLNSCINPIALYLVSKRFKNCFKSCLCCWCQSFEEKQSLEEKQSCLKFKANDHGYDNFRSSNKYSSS
In words: Endothelin (ET) receptor binding assay, ETB ([125I]ET-3 alone, porcine lung plasma membrane). The following applies: for inhibition at 0.1 µM: 10^-7 M of the test compound, specific ETB binding; for Ki: from inhibition curves for the binding of [125I]ETs. Here is the method:
as §1

Another test concerns the target T3, guinea pig trachea (Cavia porcellus, UniProt H0VTF3).
T3 construct: The trachea which is isolated from male Hartley guinea pigs; from tissue; host or cells: guinea pig (Hartley) tracheal rings, epithelium removed
T3 sequence (H0VTF3 27-415): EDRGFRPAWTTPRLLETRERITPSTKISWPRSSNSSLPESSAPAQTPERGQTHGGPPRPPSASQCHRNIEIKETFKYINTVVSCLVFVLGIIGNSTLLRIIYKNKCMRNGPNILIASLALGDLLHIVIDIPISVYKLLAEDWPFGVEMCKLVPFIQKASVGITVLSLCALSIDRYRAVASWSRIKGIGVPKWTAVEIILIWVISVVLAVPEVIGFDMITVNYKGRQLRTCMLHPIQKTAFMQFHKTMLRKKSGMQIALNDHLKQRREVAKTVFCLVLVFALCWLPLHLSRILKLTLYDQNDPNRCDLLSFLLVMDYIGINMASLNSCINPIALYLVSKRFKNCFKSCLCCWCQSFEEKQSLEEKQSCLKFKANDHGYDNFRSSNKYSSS
In words: Contraction of guinea pig trachea (inhibition of ET-3 induced contraction). The following applies: ET-3 contraction; Krebs-Henseleit solution; 60 mM KCl reference standard; read-out: pA2 (converted). The procedure: Contraction assays are performed basically according to the published method (M. Takai et al. Biochem. Biophys. Res. Commun. 184, 953-959, 1992). The trachea which is isolated from male Hartley guinea pigs weighing 350-500 g, is cut into rings of approximately 2 mm length after removal of the adherent fat and connective tissues. The epithelium is removed mechanically from the rings. The preparations are placed in organ baths containing a Krebs-Henseleit or Tyrode solution at 37° C., pH 7.4 bubbled with 95% O2 and 5% CO2. Tension is measured isometrically via a force-displacement transducer (Nikhon Kohden, Tokyo, TB-612T) under an initial tension of 1 g. Concentration-response curves for ET-3 are obtained by its cumulative application. Inhibitory activities of given compounds are investigated by the addition of their DMSO solutions into the baths 10 to 40 min before the addition of ET-3. These activities are evaluated numerically by pA2 values which are negative logarithms of compound concentrations inducing a shift of the ET-3 concentration-effective curves toward the 2-fold higher concentration range of ET-3. Contraction produced by 60 mM KCl or 10 μM carbachol is used as a reference standard.

What is called inhibition is the percentage by which the read-out fell short of the control. Turning to `Cc1cc(C)cc(C(=O)N(C)[C@H](Cc2ccc(-c3ccccc3)cc2)C(=O)CC(Cc2c[nH]c3ccccc23)C(=O)O)c1` (some centres unmarked) [Example 84], at ETA receptor, the inhibition at 10 µM came to 46%. Moreover, on ETB receptor, the inhibition at 0.1 µM is 70%.

As to `Cc1cc(C)cc(C(=O)N(C)[C@H](Cc2ccc(-c3ccccc3)cc2)C(=O)N(C)[C@@H](Cc2c[nH]c3ccccc23)C(=O)O)c1` [Example 12, N-(3,5-Dimethylbenzoyl)-N-methyl-(D)-(4-phenylphenyl)alanyl-N-methyl-(L)-tryptophan], the inhibition at 10 µM on ETA receptor is 36%. 0.1 µM produced 91% inhibition on ETB receptor.

Take `Cc1cc(C)cc(C(=O)N(C)[C@H](Cc2ccccc2)C(=O)N[C@@H](Cc2c[nH]c3ccccc23)C(=O)O)c1` [Example 1, N-(3,5-Dimethylbenzoyl)-N-methyl-(D)-phenylalanyl-(L)-tryptophan]: the Kb on guinea pig trachea is 501 nM. Also, the inhibition at 10 µM on ETA receptor came to 37%. 0.1 µM produced 55% inhibition on ETB receptor.

By Ki is commonly meant the equilibrium dissociation constant of an inhibitor or competing ligand from its target. In the case of `Cc1cc(C)cc(C(=O)N(C)[C@H](Cc2ccc(-c3ccccc3)cc2)C(=O)N[C@@H](Cc2c[nH]c3ccccc23)C(=O)O)c1` [Example 55, N-(3,5-Dimethylbenzoyl)-N-methyl-(D)-(4-phenylphenyl)alanyl-(L)-tryptophan], at ETA receptor, the inhibition at 10 µM came to 94% and the Ki was 440 nM. At ETB receptor, 0.1 µM produced 100% inhibition and the Ki is 1 nM.

Consider `Cc1cc(C)cc(C(=O)N(C)C(C(=O)N[C@@H](Cc2c[nH]c3ccccc23)C(=O)O)C(c2ccccc2)c2ccccc2)c1` (some centres unmarked) [Example 57, N-(3,5-dimethylbenzoyl)-N-methyl-(D,L)-3-(diphenyl)alanyl-(L)-tryptophan], for which the inhibition at 10 µM on ETA receptor worked out at 34%. In addition, testing at 0.1 µM on ETB receptor gave an inhibition of 95%.

On to `Cc1cc(C)cc(C(=O)N(C)[C@H](Cc2ccc(-c3ccccc3)cc2)C(=O)NC(Cc2csc3ccccc23)C(=O)O)c1` (some centres unmarked) [Example 7], for which, on ETA receptor, the inhibition at 10 µM was found to be 77%. Moreover, testing at 0.1 µM on ETB receptor gave an inhibition of 87%.

Turning to `Cc1cc(C)cc(C(=O)N(C)[C@H](Cc2ccc(-c3ccsc3)cc2)C(=O)N[C@@H](Cc2c[nH]c3ccccc23)C(=O)O)c1` [Example 91, N-(3,5-dimethylbenzoyl)-N-methyl-(D)-3-[4-(3-thienyl)phenyl]alanyl-(L)-tryptophan], on ETA receptor, the inhibition at 10 µM came to 100% and the inhibitory constant (Ki) was 54 nM. At ETB receptor, this compound had an inhibition at 0.1 µM of 100% and an inhibition constant Ki of 0.23 nM.

Regarding `COc1ccc(C[C@H](C(=O)N[C@@H](Cc2c[nH]c3ccccc23)C(=O)O)N(C)C(=O)c2cc(C)cc(C)c2)cc1` [Example 65, N-(3,5-dimethylbenzoyl)-N-methyl-O-methyl-(D)-tyrosyl-(L)-tryptophan], at ETA receptor, the inhibition at 10 µM is 47%. The inhibition at 0.1 µM at ETB receptor turned out to be 59%.

`Cc1cc(C)cc(C(=O)N(C)[C@H](Cc2ccc(-c3ccno3)cc2)C(=O)N[C@@H](Cc2c[nH]c3ccccc23)C(=O)O)c1` [Example 95, N-(3,5-dimethylbenzoyl)-N-methyl-(D)-3-[4-(5-isoxazolyl)phenyl]alanyl-(L)-tryptophan]: on ETA receptor, the inhibition at 10 µM was determined as 98% and the inhibition constant (Ki) was found to be 45 nM. Moreover, on ETB receptor, 0.1 µM produced 98% inhibition and the inhibition constant Ki amounted to 0.21 nM.

Turning to `Cc1cc(C)cc(C(=O)N(C)[C@H](Cc2ccc(-c3ccccc3)cc2)C(=O)N[C@@H](Cc2c[nH]c3ccccc23)c2nn[nH]n2)c1` [Example 4, 5-[N-(3,5-dimethylbenzoyl)-N-methyl-(D)-(4-phenylphenyl)alanyl-(L)-tryptophanyl]-1H-tetrazole], at ETA receptor, the inhibition at 10 µM stood at 74%. Besides, the inhibition at 0.1 µM on ETB receptor came to 93%.

For `Cc1cc(C)cc(C(=O)N(C)[C@H](Cc2ccc(-c3cccs3)cc2)C(=O)N[C@@H](Cc2c[nH]c3ccccc23)C(=O)O)c1` [Example 93, N-(3,5-dimethylbenzoyl)-N-methyl-(D)-3-[4-(2-thienyl)phenyl]alanyl-(L)-tryptophan], the results for the inhibitory constant (Ki) on ETA receptor and on ETB receptor were 87 nM and 0.6 nM, respectively.
